The supplement of paper PMC10307832

How the values were obtained:
Assay in all cases: relative viability (nuclei count vs DMSO), 5 days (fraction); higher = more cells survive
SK-LU-1 = tested on: SK-LU-1
How it was run: (§1)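 Dosing by pin tool came one day after lung cancer cell lines were seeded in 1536-well plates, using either one drug or a fixed anchor-drug dose plus five library-drug doses (not always all listed) in √10 steps. After 5 days, nuclei were counted on 4× images. Relative viability is treated-well nuclei count divided by vehicle-well nuclei count, and values are medians of duplicate plates.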

NCI-H23 = tested on: NCI-H23
How it was run: as §1

H3255 = tested on: H3255
How it was run: as §1

NCI-H3122 = tested on: NCI-H3122
How it was run: as §1

NCI-H2126 = tested on: NCI-H2126
How it was run: as §1

ChaGo-K-1 = tested on: ChaGo-K-1
How it was run: as §1

PC-3 [JPC-3] = tested on: PC-3 [JPC-3]
How it was run: as §1

HOP-62 = tested on: HOP-62
How it was run: as §1

HARA = tested on: HARA
How it was run: as §1

COR-L 105 = tested on: COR-L 105
How it was run: as §1

NCI-H2228 = tested on: NCI-H2228
How it was run: as §1

NCI-H596 = tested on: NCI-H596
How it was run: as §1

NCI-H2405 = tested on: NCI-H2405
How it was run: as §1

201T = tested on: 201T
How it was run: as §1

NCI-H727 = tested on: NCI-H727
How it was run: as §1

HCC-827 = tested on: HCC-827
How it was run: as §1

LOU-NH91 = tested on: LOU-NH91
How it was run: as §1

EKVX = tested on: EKVX
How it was run: as §1

NCI-H1975 = tested on: NCI-H1975
How it was run: as §1

`CN1CCN(CCOc2cc(OC3CCOCC3)c3c(Nc4c(Cl)ccc5c4OCO5)ncnc3c2)CC1` [Saracatinib] + CC1(C)CCC(c2ccc(Cl)cc2)=C(CN2CCN(c3ccc(C(=O)NS(=O)(=O)c4ccc(N[C@H](CCN5CCOCC5)CSc5ccccc5)c(S(=O)(=O)C(F)(F)F)c4)cc3)CC2)C1 [Navitoclax] (partner 0.5 µM) was tested, and the relative viability (SK-LU-1; first compound 0.02 µM) was 0.752, the relative viability (SK-LU-1; first compound 0.2 µM) was 0.535 and the relative viability (SK-LU-1; first compound 0.6325 µM) was 0.527. It also gave a relative viability (SK-LU-1; first compound 2 µM) of 0.412, a relative viability (NCI-H23; first compound 0.02 µM) of 0.815 and a relative viability (NCI-H23; first compound 0.6325 µM) of 0.847. For the same compound, the relative viability (NCI-H23; first compound 2 µM) was 0.52, the relative viability (H3255; first compound 0.02 µM) was 0.515 and the relative viability (H3255; first compound 0.2 µM) was 0.393. It also gave a relative viability (H3255; first compound 0.6325 µM) of 0.302, a relative viability (H3255; first compound 2 µM) of 0.0997 and a relative viability (NCI-H3122; first compound 0.02 µM) of 1.02. It also gave a relative viability (NCI-H3122; first compound 0.6325 µM) of 0.942, a relative viability (NCI-H3122; first compound 2 µM) of 0.838 and a relative viability (NCI-H2126; first compound 0.02 µM) of 0.876. It also gave a relative viability (NCI-H2126; first compound 0.2 µM) of 0.747, a relative viability (NCI-H2126; first compound 0.6325 µM) of 0.887 and a relative viability (NCI-H2126; first compound 2 µM) of 0.684. The relative viability (ChaGo-K-1; first compound 0.02 µM) was 1.15, the relative viability (ChaGo-K-1; first compound 0.2 µM) was 0.68 and the relative viability (ChaGo-K-1; first compound 0.6325 µM) was 1.21. For the same compound, the relative viability (ChaGo-K-1; first compound 2 µM) was 0.542, the relative viability (PC-3 [JPC-3]; first compound 0.02 µM) was 0.806 and the relative viability (PC-3 [JPC-3]; first compound 0.2 µM) was 0.754. For the same compound, the relative viability (PC-3 [JPC-3]; first compound 0.6325 µM) was 0.726, the relative viability (PC-3 [JPC-3]; first compound 2 µM) was 0.508 and the relative viability (HOP-62; first compound 0.02 µM) was 1.01. It also gave a relative viability (HOP-62; first compound 0.2 µM) of 0.804, a relative viability (HOP-62; first compound 0.6325 µM) of 1.25 and a relative viability (HOP-62; first compound 2 µM) of 1.1. For the same compound, the relative viability (HARA; first compound 0.02 µM) was 1.2, the relative viability (HARA; first compound 0.6325 µM) was 1.1 and the relative viability (HARA; first compound 2 µM) was 0.984. It also gave a relative viability (COR-L 105; first compound 0.02 µM) of 0.795, a relative viability (COR-L 105; first compound 0.2 µM) of 0.764 and a relative viability (COR-L 105; first compound 0.6325 µM) of 0.578. It also gave a relative viability (COR-L 105; first compound 2 µM) of 0.474, a relative viability (NCI-H2228; first compound 0.02 µM) of 1.29 and a relative viability (NCI-H2228; first compound 0.2 µM) of 0.831. For the same compound, the relative viability (NCI-H2228; first compound 0.6325 µM) was 1.24, the relative viability (NCI-H2228; first compound 2 µM) was 0.459 and the relative viability (NCI-H596; first compound 0.02 µM) was 0.952. The relative viability (NCI-H596; first compound 0.2 µM) was 0.711, the relative viability (NCI-H596; first compound 0.6325 µM) was 0.925 and the relative viability (NCI-H596; first compound 2 µM) was 0.682. For the same compound, the relative viability (NCI-H2405; first compound 0.02 µM) was 0.816, the relative viability (NCI-H2405; first compound 0.2 µM) was 0.874 and the relative viability (NCI-H2405; first compound 0.6325 µM) was 0.401. The relative viability (NCI-H2405; first compound 2 µM) was 0.316, the relative viability (201T; first compound 0.02 µM) was 1.29 and the relative viability (201T; first compound 0.2 µM) was 1.16. The relative viability (201T; first compound 0.6325 µM) was 1.09, the relative viability (201T; first compound 2 µM) was 1.1 and the relative viability (NCI-H727; first compound 0.02 µM) was 0.499. It also gave a relative viability (NCI-H727; first compound 0.2 µM) of 0.285, a relative viability (NCI-H727; first compound 0.6325 µM) of 0.48 and a relative viability (NCI-H727; first compound 2 µM) of 0.225. It also gave a relative viability (HCC-827; first compound 0.02 µM) of 0.979, a relative viability (HCC-827; first compound 0.2 µM) of 0.808 and a relative viability (HCC-827; first compound 0.6325 µM) of 0.368. For the same compound, the relative viability (HCC-827; first compound 2 µM) was 0.137, the relative viability (LOU-NH91; first compound 0.02 µM) was 0.678 and the relative viability (LOU-NH91; first compound 0.2 µM) was 0.418. For the same compound, the relative viability (LOU-NH91; first compound 0.6325 µM) was 0.405, the relative viability (LOU-NH91; first compound 2 µM) was 0.361 and the relative viability (EKVX; first compound 0.02 µM) was 0.902. The relative viability (EKVX; first compound 0.2 µM) was 0.88, the relative viability (EKVX; first compound 0.6325 µM) was 0.903 and the relative viability (EKVX; first compound 2 µM) was 0.357. For the same compound, the relative viability (NCI-H1975; first compound 0.02 µM) was 1.17, the relative viability (NCI-H1975; first compound 0.6325 µM) was 1.06 and the relative viability (NCI-H1975; first compound 2 µM) was 0.749.
